The subject of test [1] is stable HCV 1b RLuc replicon cells (dicistronic genotype 1b Con1 replicon). Description: Renilla luciferase HCV replicon reporter assay, genotype 1b. The test is classed as cell-based. To be noted: stable 1b Con1 RLuc replicon cells, 72 hours, read-out: 1b. The gist of the method:
(§1)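 First, 3-fold serial dilutions of compound went onto replicon cells, DMSO serving as no-inhibition control and ITMN-191 at >100×EC50 as positive control. Next came 72 h incubation, lysis and Renilla luciferase measurement. Finally, EC50 was calculated by non-linear regression; replicons covered genotypes 1a H77, 1b Con1, 2a JFH-1 (L31) and J6-NS5A chimera (M31).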

In test [2] the test system is stable HCV 1a RLuc replicon cells (dicistronic genotype 1a H77 replicon). Put plainly: Renilla luciferase HCV replicon reporter assay, genotype 1a. To be noted: stable 1a H77 RLuc replicon cells. In kind it is cell-based. The gist of the method:
as §1
In general terms: A replicon is a self-replicating genome or part of one, used to study replication in cells.

Test [3] relates to stable HCV 2a JFH-1 Rluc replicon cells (L31 present in NS5A). Description: Renilla luciferase HCV replicon reporter assay, genotype 2a JFH-1. The test is classed as cell-based. The gist of the method:
as §1

The test system of test [4] is NS5A chimeric genotype 2a JFH-1 replicon with genotype 2a J6 strain NS5A gene (M31 present). Description: Replicon assay, genotype 2a J6 NS5A chimera. In kind it is cell-based, HCV. Put shortly: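 Cells carrying the stable or transiently transfected (Huh-Lunet) dicistronic RLuc replicons received 3-fold serial compound dilutions from 10 mM DMSO stocks. After 72 h, cells were lysed and Renilla luciferase read. DMSO served as the no-inhibition control and ITMN-191 above 100×EC50 as the positive control; EC50 by non-linear regression.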

For test [5], the system named is NS5A chimeric genotype 2a JFH-1 replicon with genotype 2b MD2b-1 strain NS5A gene (M31 present). Put plainly: Replicon assay, genotype 2b NS5A chimera. The test is classed as cell-based, HCV. Put shortly:
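EC50 was fitted by non-linear regression to Renilla luciferase signal after 72 h of exposure to 3-fold serially diluted compound (10 mM DMSO stocks). Controls were DMSO (none) and ITMN-191 above 100×EC50 (full). Chimeric 2a replicons were used either stable or transiently transfected into Huh-Lunet cells.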

Test [6] has as its system NS5A chimeric genotype 1b Con1 replicon with genotype 3a S52 strain NS5A gene. Description: Replicon assay, genotype 3a NS5A chimera. In kind it is cell-based, HCV.
Test [7] concerns NS5A chimeric genotype 1b Con1 replicon with genotype 4a ED43 strain NS5A gene. Description: Replicon assay, genotype 4a NS5A chimera. In kind it is cell-based, HCV.
Where [8] appears, read: Hepatitis C virus, 72 h, activity range.
The mark [9] stands for this setting: Hepatitis C virus, read-out: 2a JFH (nM), genotype 2a JFH-1 replicon (L31 in NS5A), stable cells.
The mark [10] stands for this setting: Hepatitis C virus, read-out: 2a JFH, stable 2a JFH-1 Rluc replicon cells, L31 in NS5A, activity range.
Where [11] appears, read: Hepatitis C virus, read-out: 2a J6 (t) (nM), genotype 2a J6 NS5A chimeric replicon (M31), transiently transfected (t) into Huh-Lunet cells.
Setting [12] is: Hepatitis C virus, read-out: 2a J6 (t), transiently transfected (t) into Huh-Lunet cells, activity range.
The mark [13] stands for this setting: Hepatitis C virus, 2BS, read-out: 2b (s), stably replicating replicon cells (s), activity range.
Where [14] appears, read: Hepatitis C virus, read-out: 2b (s) (nM), genotype 2b MD2b-1 NS5A chimeric replicon (M31), stably replicating replicon cells (s).
Setting [15] is: Hepatitis C virus, read-out: 3a (s) (nM), genotype 3a NS5A chimeric replicon, stable replicon cells (s).
Setting [16] is: Hepatitis C virus, read-out: 3a (s), (s), activity range.
[17] abbreviates: Hepatitis C virus, read-out: 4a (s) (nM), genotype 4a NS5A chimeric replicon, stable replicon cells (s).
[18] abbreviates: Hepatitis C virus, read-out: 4a (s), (s), activity range.
Where [19] appears, read: Hepatitis C virus, read-out: 2b (t) (nM), genotype 2b MD2b-1 NS5A chimeric replicon (M31), transiently transfected (t).
Where [20] appears, read: Hepatitis C virus, read-out: 2b (t), transiently transfected (t) into Huh-Lunet cells, activity range.

Structures are written as SMILES. Read-outs that look alike come from different tables or passages of the source. A value given as a limit tells only on which side of the number the result lay.

Regarding `COC[C@H]1C[C@@H](c2ncc(-c3ccc4c(c3)COc3cc5c(ccc6nc([C@@H]7C[C@H](COC)CN7C(=O)[C@@H](NC(=O)OC)[C@@H](C)OC)[nH]c65)cc3-4)[nH]2)N(C(=O)[C@@H](NC(=O)OC)[C@@H](C)OC)C1` [EX, Methyl {(2S,3R)-3-methoxy-1-[(2S,4S)-2-(9-{2-[(2S,4S)-1-[N-(methoxycarbonyl)-O-methyl-L-threonyl]-4-(methoxymethyl)pyrrolidin-2-yl]-1H-imidazol-5-yl}-1,11-dihydroisochromeno[4′,3′:6,7]naphtho[1,2-d]imidazol-2-yl)-4-(methoxymethyl)pyrrolidin-1-yl]-1-oxobutan-2-yl}carbamate], the EC50 in test [1] (Hepatitis C virus, 72 h) was 0.197 nM; in test [2] (Hepatitis C virus, 72 h) it was 0.079 nM; in test [2] (setting [8]) it was less than 0.1 nM; in test [3] (setting [9]), 0.027 nM; in test [3] (setting [10]) it was less than 0.1 nM; in test [4] (setting [11]), 0.052 nM. In addition, the EC50 in test [4] (setting [12]) was less than 0.1 nM; in test [5] (setting [13]), 0.1 to 0.999 nM; in test [5] (setting [14]) it was 0.393 nM; in test [6] (setting [15]), 1.69 nM; in test [6] (setting [16]), 1 to 44 nM; in test [7] (setting [17]), 0.072 nM. Besides, the EC50 in test [7] (setting [18]) was less than 0.1 nM.

Regarding `COC(=O)N[C@H](C(=O)N1C[C@@H](C)C[C@H]1c1ncc(-c2ccc3c(c2)COc2cc4c(ccc5nc([C@@H]6C[C@H](C)CN6C(=O)[C@@H](NC(=O)OC)[C@@H](C)OC)[nH]c54)cc2-3)[nH]1)[C@@H](C)OC` [EZ, Methyl [(2S,3R)-3-methoxy-1-{(2S,4S)-2-[9-(2-{(2S,4S)-1-[N-(methoxycarbonyl)-O-methyl-L-threonyl]-4-methylpyrrolidin-2-yl}-1H-imidazol-5-yl)-1,11-dihydroisochromeno[4′,3′:6,7]naphtho[1,2-d]imidazol-2-yl]-4-methylpyrrolidin-1-yl}-1-oxobutan-2-yl]carbamate], the EC50 in test [1] (Hepatitis C virus, 72 h) was 0.084 nM; in test [2] (Hepatitis C virus, 72 h) it was 0.028 nM; in test [2] (setting [8]) it was less than 0.1 nM; in test [3] (setting [9]), 0.016 nM; in test [3] (setting [10]), less than 0.1 nM; in test [4] (setting [11]), 0.036 nM. For the same compound, the EC50 is less than 0.1 nM in test [4] (setting [12]); 0.1 to 0.999 nM in test [5] (setting [13]); 0.262 nM in test [5] (setting [14]); 0.263 nM in test [6] (setting [15]); 0.1 to 0.999 nM in test [6] (setting [16]); 0.025 nM in test [7] (setting [17]). For the same compound, in test [7] (setting [18]), the EC50 was less than 0.1 nM.

Take `COC(=O)N[C@H](C(=O)N1C[C@@H](C)C[C@H]1c1ncc(-c2ccc3c(c2)COc2cc4c(ccc5nc([C@@H]6CC[C@H](C)N6C(=O)[C@@H](NC(=O)OC)C6CCOCC6)[nH]c54)cc2-3)[nH]1)C(C)C` [FN, Methyl [(2S)-1-{(2S,4S)-2-[5-(2-{(2S,5S)-1-[(2S)-2-[(methoxycarbonyl)amino]-2-(tetrahydro-2H-pyran-4-yl)acetyl]-5-methylpyrrolidin-2-yl}-1,11-dihydroisochromeno[4′,3′:6,7]naphtho[1,2-d]imidazol-9-yl)-1H-imidazol-2-yl]-4-methylpyrrolidin-1-yl}-3-methyl-1-oxobutan-2-yl]carbamate]: the EC50 in test [1] (Hepatitis C virus, 72 h) is 0.053 nM; in test [2] (Hepatitis C virus, 72 h) it was 0.035 nM; in test [2] (setting [8]), less than 0.1 nM; in test [3] (setting [9]) it was 0.028 nM; in test [3] (setting [10]), less than 0.1 nM; in test [4] (setting [11]), 0.068 nM. The EC50 in test [4] (setting [12]) is less than 0.1 nM; in test [5] (setting [13]) it was 0.1 to 0.999 nM; in test [5] (setting [14]), 0.142 nM; in test [6] (setting [15]) it was 0.084 nM; in test [6] (setting [16]), less than 0.1 nM; in test [7] (setting [17]) it was 0.02 nM. In addition, the EC50 in test [7] (setting [18]) was less than 0.1 nM.

Take `COC[C@H]1C[C@@H](c2nc(C3CC3)c(-c3ccc4c(c3)COc3cc5c(ccc6nc([C@@H]7CC[C@H](C)N7C(=O)[C@@H](NC(=O)OC)C(C)C)[nH]c65)cc3-4)[nH]2)N(C(=O)[C@H](NC(=O)OC)c2ccccc2)C1` [FV, Methyl {(1R)-2-[(2S,4S)-2-(4-cyclopropyl-5-{2-[(2S,5S)-1-{(2S)-2-[(methoxycarbonyl)amino]-3-methylbutanoyl}-5-methylpyrrolidin-2-yl]-1,11-dihydroisochromeno[4′,3′:6,7]naphtho[1,2-d]imidazol-9-yl}-1H-imidazol-2-yl)-4-(methoxymethyl)pyrrolidin-1-yl]-2-oxo-1-phenylethyl}carbamate]: the EC50 is 0.036 nM in test [1]; 0.023 nM in test [2] (72 hours); less than 0.1 nM in test [2] (72 hours, activity range); 0.111 nM in test [3] (read-out: 2a JFH, genotype 2a JFH-1 replicon (L31 in NS5A), stable cells); 0.1 to 0.999 nM in test [3] (read-out: 2a JFH, stable 2a JFH-1 Rluc replicon cells, L31 in NS5A, activity range); 3.78 nM in test [4] (read-out: 2a J6 (t), genotype 2a J6 NS5A chimeric replicon (M31), transiently transfected (t) into Huh-Lunet cells). Besides, the EC50 in test [4] (read-out: 2a J6 (t), transiently transfected (t) into Huh-Lunet cells, activity range) is 1 to 44 nM; in test [5] (setting [19]), 0.772 nM; in test [5] (setting [20]), 0.1 to 0.999 nM; in test [5] (read-out: 2b (s), genotype 2b MD2b-1 NS5A chimeric replicon (M31), stably replicating replicon cells (s)), 2.55 nM; in test [5] (read-out: 2b (s), stably replicating replicon cells (s), activity range), 1 to 44 nM; in test [6] (read-out: 3a (s), (s), activity range) it was 1 to 44 nM. The EC50 was 5.25 nM in test [6] (read-out: 3a (s), genotype 3a NS5A chimeric replicon, stable replicon cells (s)); less than 0.1 nM in test [7] (read-out: 4a (s), (s), activity range); 0.029 nM in test [7] (read-out: 4a (s), genotype 4a NS5A chimeric replicon, stable replicon cells (s)).

As to `COC[C@H]1C[C@@H](c2ncc(-c3ccc4c(c3)COc3cc5c(ccc6nc([C@@H]7C[C@H](C)CN7C(=O)[C@@H](NC(=O)OC)[C@@H](C)OC)[nH]c65)cc3-4)[nH]2)N(C(=O)[C@@H](NC(=O)OC)[C@@H](C)OC)C1` [FW, Methyl {(2S,3R)-3-methoxy-1-[(2S,4S)-2-(9-{2-[(2S,4S)-1-[N-(methoxycarbonyl)-O-methyl-L-threonyl]-4-(methoxymethyl)pyrrolidin-2-yl]-1H-imidazol-5-yl}-1,11-dihydroisochromeno[4′,3′:6,7]naphtho[1,2-d]imidazol-2-yl)-4-methylpyrrolidin-1-yl]-1-oxobutan-2-yl}carbamate], the EC50 was 0.187 nM in test [1] (Hepatitis C virus, 72 h); 0.121 nM in test [2] (Hepatitis C virus, 72 h); 0.1 to 0.999 nM in test [2] (setting [8]); 0.054 nM in test [3] (setting [9]); less than 0.1 nM in test [3] (setting [10]); 0.104 nM in test [4] (setting [11]). For the same compound, the EC50 was 0.1 to 0.999 nM in test [4] (setting [12]); 0.1 to 0.999 nM in test [5] (setting [13]); 0.773 nM in test [5] (setting [14]); 0.399 nM in test [5] (setting [19]); 0.1 to 0.999 nM in test [5] (setting [20]); 1.17 nM in test [6] (setting [15]). The EC50 was 1 to 44 nM in test [6] (setting [16]), 0.08 nM in test [7] (setting [17]) and less than 0.1 nM in test [7] (setting [18]).

As for `COC[C@H]1C[C@@H](c2ncc(-c3ccc4c(c3)COc3cc5c(ccc6nc([C@@H]7CC[C@H](C)N7C(=O)[C@@H](NC(=O)OC)[C@@H](C)OC)[nH]c65)cc3-4)[nH]2)N(C(=O)[C@@H](NC(=O)OC)[C@@H](C)OC)C1` [FX, Methyl {(2S,3R)-3-methoxy-1-[(2S,5S)-2-(9-{2-[(2S,4S)-1-[N-(methoxycarbonyl)-O-methyl-L-threonyl]-4-(methoxymethyl)pyrrolidin-2-yl]-1H-imidazol-5-yl}-1,11-dihydroisochromeno[4′,3′:6,7]naphtho[1,2-d]imidazol-2-yl)-5-methylpyrrolidin-1-yl]-1-oxobutan-2-yl}carbamate], the EC50 in test [1] (Hepatitis C virus, 72 h) is 0.06 nM; in test [2] (Hepatitis C virus, 72 h), 0.041 nM; in test [2] (setting [8]), less than 0.1 nM; in test [3] (setting [9]), 0.024 nM; in test [3] (setting [10]) it was less than 0.1 nM; in test [4] (setting [11]), 0.064 nM. The EC50 in test [4] (setting [12]) is less than 0.1 nM; in test [5] (setting [13]), 0.1 to 0.999 nM; in test [5] (setting [14]) it was 0.288 nM; in test [5] (setting [19]) it was 0.122 nM; in test [5] (setting [20]), 0.1 to 0.999 nM; in test [6] (setting [15]), 0.243 nM. For the same compound, the values for the EC50 in test [6] (setting [16]), in test [7] (setting [17]) and in test [7] (setting [18]) were 0.1 to 0.999 nM, 0.031 nM and less than 0.1 nM, respectively.

The record behind these values is US10800789B2, “Antiviral compounds” (Gilead Pharmasset LLC, priority 2012, dated 2020).
